The test deals with T1, hT2R54 (Homo sapiens, UniProt P59534).
T1 construct: expressed in transfected cells; it overexpresses a promiscuous G protein
T1 sequence (P59534 1-338): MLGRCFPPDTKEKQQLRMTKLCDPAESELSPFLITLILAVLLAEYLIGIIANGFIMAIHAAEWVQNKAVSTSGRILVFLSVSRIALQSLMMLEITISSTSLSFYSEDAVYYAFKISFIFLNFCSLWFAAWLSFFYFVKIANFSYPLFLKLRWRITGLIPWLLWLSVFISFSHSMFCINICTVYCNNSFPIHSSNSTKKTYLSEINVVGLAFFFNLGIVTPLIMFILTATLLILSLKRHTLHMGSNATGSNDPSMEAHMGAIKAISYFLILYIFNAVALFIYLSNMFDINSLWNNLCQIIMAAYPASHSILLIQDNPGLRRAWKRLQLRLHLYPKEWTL
As to the kind of experiment: Cell-based assay for measuring hT2R54 inhibition (FLIPR calcium, Fluo4AM, acetaminophen as bitter agonist). The essentials: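 Cells stably co-expressing hT2R54 and a promiscuous G protein were loaded with Fluo4AM and given acetaminophen dose series, alone or with fixed concentrations of test compound. On FLIPR, baseline was recorded for 10 s and fluorescence for 3 min after addition. IC50 is the concentration halving the acetaminophen-alone response.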

Where [1] appears, read: Table 6, cells stably expressing hT2R54 and a promiscuous G protein, read-out: hT2R54 IC50.
Setting [2] is: Table 7, cells stably expressing hT2R54 and a promiscuous G protein, read-out: hT2R54 IC50.
[3] abbreviates: given in example heading, read-out: IC50.

Like-named read-outs stand apart in the source and are kept apart here.

For `CC(=O)c1cc2c(cc1NC(=O)CNC1CCN(C(=O)CC(C)C)CC1)OCO2` [compound 177], the IC50 (in general, the concentration needed to halve the response being measured) under setting [1] was 200 nM. For `CC(=O)c1cc2c(cc1NC(=O)CNC1CCN(C(=O)c3ccco3)CC1)OCO2` [compound 178], the IC50 under setting [1] came to 60 nM.

As to `CC(=O)c1cc2c(cc1NC(=O)CNC1CCN(C(=O)c3cccnc3)CC1)OCO2` [compound 179], the IC50 under setting [1] turned out to be 90 nM. Still for that read-out and setting: the same measure for `CC(=O)c1cc2c(cc1NC(=O)CN1CCC(N(C)C(=O)CC(C)C)CC1)OCO2` [compound 180]: 589 nM. The same measure, in the same setting: with `CC(=O)c1cc2c(cc1NC(=O)CN1CCC(N(C)C(=O)c3ccco3)CC1)OCO2` [compound 181] the figure was 676 nM; with `CC(=O)c1cc2c(cc1NC(=O)CN1CCC(N(C)C(=O)c3cccnc3)CC1)OCO2` [compound 182], 455 nM. For `CC(=O)c1cc2c(cc1NC(=O)CN(C)C1CCN(C(=O)c3ccco3)CC1)OCO2` [compound 183, N-(6-Acetylbenzo[d][1,3]dioxol-5-yl)-2-((1-(furan-2-carbonyl)piperidin-4-yl)(methyl)amino)acetamide], the IC50 under setting [2] amounted to 61 nM.

In the case of `CC(=O)c1cc2c(cc1NC(=O)CN(C)C1CCN(C(=O)CC(C)C)CC1)OCO2` [compound 184, N-(6-Acetylbenzo[d][1,3]dioxol-5-yl)-2-(methyl(1-(3-methylbutanoyl)piperidin-4-yl)amino)acetamide], under setting [2], the IC50 worked out at 98 nM. Same read-out and setting: with `CC(=O)c1cc2c(cc1NC(=O)CN(C)C1CCCN(C(=O)CC(C)C)C1)OCO2` (stereo not shown) [compound 185] the figure was 50 nM. Still for that read-out and setting: the same measure for `CC(=O)c1cc2c(cc1NC(=O)CN(C)C1CCCN(C(=O)c3ccco3)C1)OCO2` (stereo not shown) [compound 186]: 20 nM. On to `CC(=O)c1cc2c(cc1NC(=O)CN(C)C1CCCN(C(=O)c3cccnc3)C1)OCO2` (stereo not shown) [compound 187], for which the IC50 under setting [2] was determined as 100 nM. With `CCOC(=O)N1CCCC(N(C)CC(=O)Nc2cc3c(cc2C(C)=O)OCO3)C1` (stereo not shown) [compound 188], the IC50 under setting [2] was determined as 90 nM. Still for that read-out and setting: with `CCNC(=O)N1CCCC(N(C)CC(=O)Nc2cc3c(cc2C(C)=O)OCO3)C1` (stereo not shown) [compound 189] the figure was 30 nM; with `CCCS(=O)(=O)N1CCCC(N(C)CC(=O)Nc2cc3c(cc2C(C)=O)OCO3)C1` (stereo not shown) [compound 190], 40 nM. As for `CCOC(=O)C1CN(C(=O)c2ccco2)CCN1CC(=O)Nc1cc2c(cc1C(C)=O)OCO2` (stereo not shown) [compound 191, Ethyl 1-(2-((6-Acetylbenzo[d][1,3]dioxol-5-yl)amino)-2-oxoethyl)-4-(furan-2-carbonyl)piperazine-2-carboxylate], under setting [3], the IC50 was found to be 16 nM. Regarding `CCOC(=O)C1CN(C(=O)CC(C)C)CCN1CC(=O)Nc1cc2c(cc1C(C)=O)OCO2` (stereo not shown) [compound 192, Ethyl 1-(2-((6-Acetylbenzo[d][1,3]dioxol-5-yl)amino)-2-oxoethyl)-4-(3-methylbutanoyl)piperazine-2-carboxylate], the IC50 under setting [3] amounted to 57 nM. On to `CC(=O)c1cc2c(cc1NC(=O)CC1CCCN(C(=O)CC(C)C)C1)OCO2` (stereo not shown) [compound 193, N-(6-acetylbenzo[d][1,3]dioxol-5-yl)-2-(1-(3-methylbutanoyl)piperidin-3-yl)acetamide], for which the IC50 (Table 8, read-out: hT2R54 IC50) came to 17 nM. Regarding `CC(=O)c1cc2c(cc1NC(=O)CC1CCCN(C(=O)c3ccco3)C1)OCO2` (stereo not shown) [compound 194, N-(6-Acetylbenzo[d][1,3]dioxol-5-yl)-2-(1-(furan-2-carbonyl)piperidin-3-yl)acetamide], the IC50 (Table 8, read-out: hT2R54 IC50) was found to be 6 nM. Regarding `CC(=O)c1cc2c(cc1NC(=O)CC1CCCN(C(=O)c3cccs3)C1)OCO2` (stereo not shown) [compound 195, N-(6-Acetylbenzo[d][1,3]dioxol-5-yl)-2-(1-(thiophene-2-carbonyl)piperidin-3-yl)acetamide], the IC50 (Table 8, read-out: hT2R54 IC50) was determined as 8 nM. As to `CC(=O)c1cc2c(cc1NC(=O)CC1CCCN(C(=O)c3ccoc3)C1)OCO2` (stereo not shown) [compound 196, N-(6-Acetylbenzo[d][1,3]dioxol-5-yl)-2-(1-(furan-3-carbonyl)piperidin-3-yl)acetamide], the IC50 (Table 8, read-out: hT2R54 IC50) was 184 nM. Same read-out and setting: the same measure for `CC(=O)c1cc2c(cc1NC(=O)CC1CCN(C(=O)c3ccco3)CC1)OCO2` [compound 197, N-(6-Acetylbenzo[d][1,3]dioxol-5-yl)-2-(1-(furan-2-carbonyl)piperidin-4-yl)acetamide]: 6 nM.

In the case of `CC(=O)c1cc2c(cc1NC(=O)CC1CCN(C(=O)CC(C)C)CC1)OCO2` [compound 198, N-(6-acetylbenzo[d][1,3]dioxol-5-yl)-2-(1-(3-methylbutanoyl)piperidin-4-yl)acetamide], where the note is “Table 8, read-out: hT2R54 IC50”, the IC50 is 45 nM.

On to `CC(=O)c1cc2c(cc1NC(=O)CC1CCN(C(=O)c3cccs3)CC1)OCO2` [compound 199, N-(6-Acetylbenzo[d][1,3]dioxol-5-yl)-2-(1-(thiophene-2-carbonyl)piperidin-4-yl)acetamide], for which the half-maximal inhibitory concentration (IC50) (Table 8, read-out: hT2R54 IC50) was found to be 12 nM. For `CC(=O)c1cc2c(cc1NC(=O)CC1CCN(C(=O)c3ccoc3)CC1)OCO2` [compound 200, N-(6-Acetylbenzo[d][1,3]dioxol-5-yl)-2-(1-(furan-3-carbonyl)piperidin-4-yl)acetamide], where the note is “Table 8, read-out: hT2R54 IC50”, the IC50 was 149 nM. For the compound `CC(=O)c1cc2c(cc1NC(=O)CC1CCN(C(=O)c3cnn(C)c3)CC1)OCO2` [compound 201, N-(6-Acetylbenzo[d][1,3]dioxol-5-yl)-2-(1-(1-methyl-1H-pyrazole-4-carbonyl)piperidin-4-yl)acetamide], for the setting “Table 8, read-out: hT2R54 IC50”, the IC50 is 339 nM. The same measure, in the same setting: with `CC(=O)c1cc2c(cc1NC(=O)CC1CCCN(C(C)=O)C1)OCO2` (stereo not shown) [compound 202] the figure was 35 nM; with `CCC(=O)N1CCCC(CC(=O)Nc2cc3c(cc2C(C)=O)OCO3)C1` (stereo not shown) [compound 203], 17 nM.

Consider `CCCC(=O)N1CCCC(CC(=O)Nc2cc3c(cc2C(C)=O)OCO3)C1` (stereo not shown) [compound 204], for which the IC50 (Table 8, read-out: hT2R54 IC50) was found to be 16 nM. Same read-out and setting: the same measure for `CC(=O)c1cc2c(cc1NC(=O)CC1CCCN(C(=O)C(C)C)C1)OCO2` (stereo not shown) [compound 205]: 12 nM; for `CC(=O)c1cc2c(cc1NC(=O)C[C@@H]1CCCN(C(=O)CC(C)C)C1)OCO2` [compound 206]: 25 nM; for `CC(=O)c1cc2c(cc1NC(=O)CC1CCCN(C(=O)CC(C)(C)C)C1)OCO2` (stereo not shown) [compound 207]: 360 nM. For the compound `CCC(C)C(=O)N1CCCC(CC(=O)Nc2cc3c(cc2C(C)=O)OCO3)C1` (stereo not shown) [compound 208], the IC50 (Table 8, read-out: hT2R54 IC50) worked out at 170 nM. For `CC(=O)c1cc2c(cc1NC(=O)CC1CCCN(C(=O)C3CCCO3)C1)OCO2` (stereo not shown) [compound 209], the IC50 (Table 8, read-out: hT2R54 IC50) turned out to be 56 nM. As to `CC(=O)c1cc2c(cc1NC(=O)CC1CCCN(C(=O)C3CCOC3)C1)OCO2` (stereo not shown) [compound 210], the IC50 (Table 8, read-out: hT2R54 IC50) worked out at 1340 nM.

For the compound `CC(=O)c1cc2c(cc1NC(=O)CC1CCCN(C(=O)C3CCCCO3)C1)OCO2` (stereo not shown) [compound 211], the IC50 (Table 8, read-out: hT2R54 IC50) came to 18 nM. Still for that read-out and setting: with `CC(=O)c1cc2c(cc1NC(=O)CC1CCCN(C(=O)CN(C)C)C1)OCO2` (stereo not shown) [compound 212] the figure was > 1000 nM; with `CCOC(=O)N1CCCC(CC(=O)Nc2cc3c(cc2C(C)=O)OCO3)C1` (stereo not shown) [compound 213], 50 nM; with `CCCOC(=O)N1CCCC(CC(=O)Nc2cc3c(cc2C(C)=O)OCO3)C1` (stereo not shown) [compound 214], 320 nM.

Consider `CC(=O)c1cc2c(cc1NC(=O)CC1CCCN(C(=O)OC(C)C)C1)OCO2` (stereo not shown) [compound 215], for which, where the note is “Table 8, read-out: hT2R54 IC50”, the IC50 was 160 nM. Turning to `CC(=O)c1cc2c(cc1NC(=O)CC1CCCN(C(=O)c3ccccc3)C1)OCO2` (stereo not shown) [compound 216], where the note is “Table 8, read-out: hT2R54 IC50”, the IC50 was found to be 80 nM.

As to `CC(=O)c1cc2c(cc1NC(=O)CC1CCCN(C(=O)c3ccccc3O)C1)OCO2` (stereo not shown) [compound 217], the IC50 (Table 8, read-out: hT2R54 IC50) was found to be 480 nM. On to `CC(=O)c1cc2c(cc1NC(=O)CC1CCCN(C(=O)c3cccc(O)c3)C1)OCO2` (stereo not shown) [compound 218], for which the IC50 (Table 8, read-out: hT2R54 IC50) is > 1000 nM. Still for that read-out and setting: the same measure for `CC(=O)c1cc2c(cc1NC(=O)CC1CCCN(C(=O)c3ccc(O)cc3)C1)OCO2` (stereo not shown) [compound 219]: 1460 nM. Turning to `CC(=O)c1cc2c(cc1NC(=O)C[C@@H]1CCCN(C(=O)c3ccco3)C1)OCO2` [compound 220], the half-inhibitory concentration (IC50) (Table 8, read-out: hT2R54 IC50) is ~10 nM. Same read-out and setting: the same measure for `CC(=O)c1cc2c(cc1NC(=O)CC1CCCN(C(=O)c3cnn(C)c3)C1)OCO2` (stereo not shown) [compound 221]: 60 nM; for `CC(=O)c1cc2c(cc1NC(=O)CC1CCCN(S(C)(=O)=O)C1)OCO2` (stereo not shown) [compound 222]: 60 nM.

In the case of `CCS(=O)(=O)N1CCCC(CC(=O)Nc2cc3c(cc2C(C)=O)OCO3)C1` (stereo not shown) [compound 223], the IC50 (Table 8, read-out: hT2R54 IC50) came to 40 nM. As to `CCCS(=O)(=O)N1CCCC(CC(=O)Nc2cc3c(cc2C(C)=O)OCO3)C1` (stereo not shown) [compound 224], the IC50 (Table 8, read-out: hT2R54 IC50) is 40 nM.

In the case of `CCCCS(=O)(=O)N1CCCC(CC(=O)Nc2cc3c(cc2C(C)=O)OCO3)C1` (stereo not shown) [compound 225], the IC50 (Table 8, read-out: hT2R54 IC50) was determined as 70 nM. Consider `CC(=O)c1cc2c(cc1NC(=O)CC1CCCN(S(=O)(=O)CC(C)C)C1)OCO2` (stereo not shown) [compound 226], for which, for the setting “Table 8, read-out: hT2R54 IC50”, the 50% inhibitory concentration (IC50) came out at 160 nM. In the case of `CC(=O)c1cc2c(cc1NC(=O)CC1CCCN(S(=O)(=O)c3ccco3)C1)OCO2` (stereo not shown) [compound 227], the IC50 (Table 8, read-out: hT2R54 IC50) amounted to 130 nM. The same measure, in the same setting: with `COCc1ccc(C(=O)N2CCCC(CC(=O)Nc3cc4c(cc3C(C)=O)OCO4)C2)o1` (stereo not shown) [compound 228] the figure was 20 nM; with `CC(=O)c1cc2c(cc1NC(=O)CC1CN(C(=O)CC(C)C)CCO1)OCO2` (stereo not shown) [compound 229], 220 nM; with `CCOC(=O)N1CCOC(CC(=O)Nc2cc3c(cc2C(C)=O)OCO3)C1` (stereo not shown) [compound 230], 160 nM. As for `CC(=O)c1cc2c(cc1NC(=O)CC1CN(C(=O)c3ccco3)CCO1)OCO2` (stereo not shown) [compound 231], for the setting “Table 8, read-out: hT2R54 IC50”, the IC50 was found to be 240 nM.

The values are drawn from patent US12295396B2, “Antagonists of T2R54 and compositions and uses thereof” (Firmenich Incorporated, priority 2018, dated 2025).
